9 molecules from PubChem BioAssay AID1404 (The Scripps Research Institute Molecular Screening Center, 2008) can be followed below.

As usually defined, the EC50 is the midpoint of the concentration-response curve.

Activity calls are given as the source filed them.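 Rule for the calls: active = EC50 for STAT3 reporter activation at or below 10 µM; inactive = the rest.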

The experiment relates to U3A cells, IL-6 STAT3 luciferase reporter, luminescence. Kind of experiment: STAT3 activators in IL-6-stimulated reporter cells, dose response, counter-screen for STAT1 activator project, U3A cells, STAT1-deficient, luminescence, IL-6 stimulus (AID 1404). (In general: A counterscreen serves to expose hits that act by an unwanted route or on another target.)
In the case of `C=CCNC(=S)NNC(=O)COc1ccc2cc(Br)ccc2c1`, the EC50 was > 55.7 µM (inactive).

With `C=CCn1c(C)cc(C(=O)CSc2nc3ccccc3o2)c1C`, the EC50 is > 55.7 µM (inactive).

Turning to `COc1ccc(NC(=S)Nc2ccc3nccnc3c2)cc1`, the EC50 is > 55.7 µM (inactive).

Regarding `O=C(O)c1ccccc1C(=O)Nc1ccc(-c2csc(-c3ccccc3)n2)cc1`, the EC50 was > 55.7 µM (inactive).

As for `Cc1ccc(/C=C/C(=O)N2CCCC(C)C2)cc1` (centres undefined), the EC50 was > 55.7 µM (inactive).

On to `Nc1ccccc1C(=O)OCC(=O)N1CCc2ccccc21`, for which the EC50 is > 55.7 µM (inactive).

As for `COc1ccc(-c2cc(C)nc3c(-c4ccccc4)cnn23)cc1`, the EC50 is > 55.7 µM (inactive).

Turning to `CCc1c(C)[nH]c(C(=O)OCc2ccccc2)c1C`, the EC50 is > 55.7 µM (inactive).

For the molecule `C/C(=C\c1ccccc1)C(=O)Nc1nccs1`, the EC50 is > 55.7 µM (inactive).
